Experimental data from patent US7605269B2, “Thiophene derivatives as Sphingosine-1-phosphate-1 receptor agonists” (Actelion Pharmaceuticals Ltd., priority 2005, dated 2009).
pEC50: −log10 of the molar value.

How the values were obtained:
[1] = biological target: recombinant human S1P1 receptor (Homo sapiens, UniProt P21453); experiment: GTPγS assay to determine EC50 values; type: biochemical; conditions: 35S-GTPγS binding, membrane preparations of CHO cells expressing recombinant human S1P1 receptor
Description: The pH is 7.4. Test compounds are dissolved and diluted in 100% DMSO and pre-incubated at room temperature for 30 min in 150 μl of the above assay buffer, in the absence of ^35S-GTPγS. After addition of 50 μl of ^35S-GTPγS, the assay is incubated for 1 h at room temperature. […] Membrane-bound ^35S-GTPγS is measured with a TopCount from Packard Biosciences.
Specific binding is determined by subtracting non-specific binding from maximal binding. Maximal binding is the amount of cpm bound to the Multiscreen plate in the presence of 10 μM of S1P. Non-specific binding is the amount of binding in the absence of an agonist in the assay.

circulating lymphocytes = experiment: Assessment of in vivo efficacy: circulating lymphocytes after oral administration; set-up: species or system rat; conditions: 6 h after oral administration of 10 mg/kg, normotensive male Wistar rats, compared to vehicle-treated group

Chain of recombinant human S1P1 receptor (P21453 whole entry): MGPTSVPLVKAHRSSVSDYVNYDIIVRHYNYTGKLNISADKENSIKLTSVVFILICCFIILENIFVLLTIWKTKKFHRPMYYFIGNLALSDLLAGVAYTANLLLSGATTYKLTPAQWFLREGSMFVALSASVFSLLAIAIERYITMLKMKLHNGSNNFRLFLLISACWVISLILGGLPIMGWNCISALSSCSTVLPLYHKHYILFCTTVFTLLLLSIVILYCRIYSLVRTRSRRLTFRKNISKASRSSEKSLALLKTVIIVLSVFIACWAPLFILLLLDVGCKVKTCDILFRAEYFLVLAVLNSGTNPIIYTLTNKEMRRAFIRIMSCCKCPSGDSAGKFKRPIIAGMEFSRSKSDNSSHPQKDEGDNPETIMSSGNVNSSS

pEC50 [1] | Compound | Lymphocyte counts (circulating lymphocytes)
8.80 | Cc1cc(-c2nc(-c3sc(C)c4c3C[C@@H]3[C@H]4C3(C)C)no2)cc(C)c1O [Example 38, 2,6-dimethyl-4-[3-((1aS,5aR)-1,1,2-trimethyl-1,1a,5,5a-tetrahydro-3-thia-cyclopropa[a]pentalen-4-yl)-[1,2,4]oxadiazol-5-yl]-phenol] | –
8.96 | Cc1cc(-c2nc(-c3sc(C)c4c3C[C@@H]3[C@H]4C3(C)C)no2)cc(C)c1OCCO [Example 39, 2-{2,6-dimethyl-4-[3-((1aS,5aR)-1,1,2-trimethyl-1,1a,5,5a-tetrahydro-3-thia-cyclopropa[a]pentalen-4-yl)-[1,2,4]oxadiazol-5-yl]-phenoxy}-ethanol] | –
8.85 | Cc1cc(-c2nc(-c3sc(C)c4c3C[C@@H]3[C@H]4C3(C)C)no2)cc(C)c1OCC(CO)CO [Example 43, 2-{2,6-dimethyl-4-[3-((1aS,5aR)-1,1,2-trimethyl-1,1a,5,5a-tetrahydro-3-thia-cyclopropa[a]pentalen-4-yl)-[1,2,4]oxadiazol-5-yl]-phenoxymethyl}-propane-1,3-diol] | –

Continued, compound first:

Compound | pEC50 [1] | Lymphocyte counts (circulating lymphocytes)
Cc1sc(-c2nc(-c3ccc(OC[C@H](O)CO)cc3)no2)c2c1[C@H]1[C@@H](C2)C1(C)C [Example 6, (2R)-3-{4-[5-((1aS,5aR)-1,1,2-trimethyl-1,1a,5,5a-tetrahydro-3-thia-cyclopropa[a]pentalen-4-yl)-[1,2,4]oxadiazol-3-yl]-phenoxy}-propane-1,2-diol] | 7.92 | –
Cc1cc(-c2noc(-c3sc(C)c4c3C[C@@H]3[C@H]4C3(C)C)n2)cc(C)c1OCC(CO)CO [Example 19, 2-{2,6-dimethyl-4-[5-((1aS,5aR)-1,1,2-trimethyl-1,1a,5,5a-tetrahydro-3-thia-cyclopropa[a]pentalen-4-yl)-[1,2,4]oxadiazol-3-yl]-phenoxymethyl}-propane-1,3-diol] | 8.92 | −56%
Cc1cc(-c2noc(-c3sc(C)c4c3C[C@@H]3[C@H]4C3(C)C)n2)cc(C)c1OCCCN [Example 24, 3-{2,6-dimethyl-4-[5-((1aS,5aR)-1,1,2-trimethyl-1,1a,5,5a-tetrahydro-3-thia-cyclopropa[a]pentalen-4-yl)-[1,2,4]oxadiazol-3-yl]-phenoxy}-propylamine] | 8.32 | –
Cc1cc(-c2noc(-c3sc(C)c4c3C[C@@H]3[C@H]4C3(C)C)n2)cc(C)c1OCCCNCCO [Example 27, 2-(3-{2,6-dimethyl-4-[5-((1aS,5aR)-1,1,2-trimethyl-1,1a,5,5a-tetrahydro-3-thia-cyclopropa[a]pentalen-4-yl)-[1,2,4]oxadiazol-3-yl]-phenoxy}-propylamino)-ethanol] | 8.21 | –
Cc1cc(-c2noc(-c3sc(C)c4c3C[C@@H]3[C@H]4C3(C)C)n2)cc(C)c1OCCCN1CCCC1C(=O)O (stereo partly drawn) [Example 32, 1-(3-{2,6-dimethyl-4-[5-((1aS,5aR)-1,1,2-trimethyl-1,1a,5,5a-tetrahydro-3-thia-cyclopropa[a]pentalen-4-yl)-[1,2,4]oxadiazol-3-yl]-phenoxy}-propyl)-pyrrolidine-2-carboxylic acid] | 8.06 | –
